Structures can show the parent of a compound that is named as a salt.
Legend:
Format in all cases: biochemical
SYK = molecular target: T1, SYK (Homo sapiens, UniProt P43405); experiment: in vitro radiometric kinase assay at […] BAY61-3606 (Fig 3B)
T1 construct: Full length His-tagged protein

IKKα = molecular target: T2, IKKα (Homo sapiens, UniProt O15111); experiment: in vitro radiometric kinase assay ([γ-33P-ATP], KinaseProfiler), dose response
T2 construct: gene CHUK; Full length GST-tagged protein
T2 sequence (O15111 1-745): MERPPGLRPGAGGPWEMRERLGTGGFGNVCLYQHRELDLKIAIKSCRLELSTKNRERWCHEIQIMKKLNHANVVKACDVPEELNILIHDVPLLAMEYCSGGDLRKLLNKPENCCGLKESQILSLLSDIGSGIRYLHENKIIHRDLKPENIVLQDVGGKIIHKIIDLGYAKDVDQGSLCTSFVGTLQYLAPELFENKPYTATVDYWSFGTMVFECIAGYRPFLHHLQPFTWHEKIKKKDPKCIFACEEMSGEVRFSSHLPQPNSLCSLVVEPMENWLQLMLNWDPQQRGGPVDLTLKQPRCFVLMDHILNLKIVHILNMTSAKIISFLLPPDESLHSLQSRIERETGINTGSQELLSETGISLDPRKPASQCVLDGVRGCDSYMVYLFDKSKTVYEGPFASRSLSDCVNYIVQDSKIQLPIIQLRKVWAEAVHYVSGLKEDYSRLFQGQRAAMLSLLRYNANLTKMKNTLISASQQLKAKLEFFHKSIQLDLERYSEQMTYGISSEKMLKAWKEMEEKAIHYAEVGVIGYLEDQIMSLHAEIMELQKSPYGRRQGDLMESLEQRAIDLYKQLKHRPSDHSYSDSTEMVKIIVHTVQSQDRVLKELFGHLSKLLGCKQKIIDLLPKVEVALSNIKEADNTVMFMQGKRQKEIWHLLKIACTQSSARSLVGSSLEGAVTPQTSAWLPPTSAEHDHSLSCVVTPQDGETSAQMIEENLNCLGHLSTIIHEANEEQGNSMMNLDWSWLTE

[1] = molecular target: T3, GCK (germinal center kinase, MAP4K2) (Homo sapiens, UniProt Q12851); experiment: in vitro radiometric kinase assay at […] BAY61-3606 (Fig 3B)
T3 construct: Residues 1–473 glutathione-s-transferase (GST) tagged protein
T3 sequence (Q12851 1-473): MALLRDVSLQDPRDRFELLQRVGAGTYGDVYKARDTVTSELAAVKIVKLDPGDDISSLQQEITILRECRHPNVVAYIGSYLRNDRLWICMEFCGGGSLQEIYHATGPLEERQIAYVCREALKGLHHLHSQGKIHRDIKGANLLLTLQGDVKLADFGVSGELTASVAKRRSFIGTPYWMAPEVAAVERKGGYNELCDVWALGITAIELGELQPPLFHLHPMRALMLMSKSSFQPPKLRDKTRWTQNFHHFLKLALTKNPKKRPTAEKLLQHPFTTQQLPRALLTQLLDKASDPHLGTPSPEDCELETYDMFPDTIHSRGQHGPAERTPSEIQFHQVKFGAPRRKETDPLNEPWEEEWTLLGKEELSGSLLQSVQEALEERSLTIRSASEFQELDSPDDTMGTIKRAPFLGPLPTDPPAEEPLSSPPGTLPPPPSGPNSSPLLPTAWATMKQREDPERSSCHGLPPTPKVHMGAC

SMILES: COc1ccc(-c2cc3nccn3c(Nc3ncccc3C(N)=O)n2)cc1OC [BAY61-3606, 2-[7-(3,4-dimethoxyphenyl)-imidazo[1,2-c]pyrimidin-5-ylamino]nicotinamide dihydrochloride]
- in vitro radiometric kinase assay at 10 μM BAY61-3606 (Fig 3B) (SYK): We observed that BAY61-3606 is a potent inhibitor of SYK, GCK and IKKα, but not IKKβ or LYN
- IC50 (IKKα): 45 nM
- in vitro radiometric kinase assay at 10 μM BAY61-3606 (Fig 3B) [1]: We observed that BAY61-3606 is a potent inhibitor of SYK, GCK and IKKα, but not IKKβ or LYN

Source: article PMC4773098, “Inhibition of IKKα by BAY61-3606 Reveals IKKα-Dependent Histone H3 Phosphorylation in Human Cytomegalovirus Infected Cells” (PLoS ONE, 2016)
